Reference: ChEMBL document CHEMBL4017513, “Structure-Activity Relationships of Potent, Targeted Covalent Inhibitors That Abolish Both the Transamidation and GTP Binding Activities of Human Tissue Transglutaminase” (J Med Chem, 2017)
Peptide text beside a SMILES is read from it. * marks the point of attachment. Cbz = O=C(OCc1ccccc1)*; Acryloyl = C=CC(=O)*

How the values were obtained:
[1] = biological target: T1, Protein-glutamine gamma-glutamyltransferase (Homo sapiens, UniProt P21980); assay: (§1) Irreversible inhibition of human TG2 using AL5 as substrate by colorimetric assay
T1 sequence (P21980 whole entry): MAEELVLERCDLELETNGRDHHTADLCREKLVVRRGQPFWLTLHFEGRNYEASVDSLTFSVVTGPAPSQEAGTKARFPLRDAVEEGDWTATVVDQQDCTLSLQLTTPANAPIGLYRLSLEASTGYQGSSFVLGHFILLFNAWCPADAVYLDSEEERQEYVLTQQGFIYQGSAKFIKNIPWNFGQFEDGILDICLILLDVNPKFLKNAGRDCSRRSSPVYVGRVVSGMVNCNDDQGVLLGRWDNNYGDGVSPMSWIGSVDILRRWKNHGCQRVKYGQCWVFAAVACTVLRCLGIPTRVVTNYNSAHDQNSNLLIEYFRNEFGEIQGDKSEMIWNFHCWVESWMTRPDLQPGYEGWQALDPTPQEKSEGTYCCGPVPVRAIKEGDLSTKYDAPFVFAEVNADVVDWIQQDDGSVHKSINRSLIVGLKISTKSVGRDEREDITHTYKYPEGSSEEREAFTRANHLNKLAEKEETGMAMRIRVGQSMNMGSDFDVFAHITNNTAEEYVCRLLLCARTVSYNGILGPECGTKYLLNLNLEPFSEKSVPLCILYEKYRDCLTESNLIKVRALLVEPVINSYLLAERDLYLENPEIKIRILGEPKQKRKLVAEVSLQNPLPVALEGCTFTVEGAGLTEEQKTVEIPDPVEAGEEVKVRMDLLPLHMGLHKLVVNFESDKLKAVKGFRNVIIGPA

[2] = biological target: T2, Protein-glutamine gamma-glutamyltransferase (Homo sapiens) (UniProt P21980); assay: Ratio of kinact to Ki for human TG2 by colorimetric assay
T2 sequence (whole entry): T1 sequence (P21980 whole entry)

[3] = biological target: T2, Protein-glutamine gamma-glutamyltransferase (Homo sapiens); assay: as §1
[4] = Inhibition of human ECS cells invasion by using Engelbreth-Holm-Swarm mouse tumor matrigel measured after 18 hrs by DAPI staining-based flourescence microscopy; format: functional, cell-based
[5] = Inhibition of guinea pig liver TG2 using Z-Gln-Gly/DMPDA as substrate preincubated for 3 mins followed by protein addition; parameters: species or system Cavia porcellus
Cavia porcellus = organism: Cavia porcellus; assay: Ratio of Kinact to Ki for guinea pig liver TG2
[6] = biological target: T2, Protein-glutamine gamma-glutamyltransferase (Homo sapiens); assay: Ratio of kinact to Ki for human TG2 by double reciprocal plot method
[7] = biological target: T1, Protein-glutamine gamma-glutamyltransferase; assay: (§2) Irreversible inhibition of human TG2 using AL5 as substrate by double reciprocal plot method
[8] = biological target: T2, Protein-glutamine gamma-glutamyltransferase (Homo sapiens); assay: as §2

SMILES	Ki [1]	Ratio [2]	Kinact [3]	also measured
C=CC(=O)NCCCC[C@H](NC(=O)OCc1ccccc1)C(=O)N1CCN(C(=O)c2cccc3ccccc23)CC1	8.9 µM			
C=CC(=O)NCCCC[C@H](NC(=O)OCc1ccccc1)C(=O)N1CCN(C(=O)c2ccccc2)CC1	36.6 µM	130 ×10³ /M/min	4.77 min⁻¹	
C=CC(=O)NCCCC[C@H](NC(=O)OCc1ccccc1)C(=O)N1CCN(S(=O)(=O)CC)CC1	36 µM	39.4 ×10³ /M/min	1.42 min⁻¹	
C=CC(=O)NCCCC[C@H](NC(=O)OCc1ccccc1)C(=O)N1CCN(C(=O)c2ccccn2)CC1	32.1 µM	91.3 ×10³ /M/min	2.93 min⁻¹	
C=CC(=O)NCCCC[C@H](NC(=O)OCc1ccccc1)C(=O)N1CCN(S(=O)(=O)c2cccc3c(N(C)C)cccc23)CC1	12.9 µM			EC50 [4]: 3.9 µM
C=CC(=O)NCCCC[C@H](NC(=O)OCc1ccccc1)C(=O)N1CCN(S(=O)(=O)C(C)C)CC1	9.1 µM	54.7 ×10³ /M/min	0.5 min⁻¹	
C=CC(=O)NCCCC[C@H](NC(=O)OCc1ccccc1)C(=O)N1CCN(C(=O)c2ccc3ccccc3c2)CC1	13.4 µM	90.3 ×10³ /M/min	1.21 min⁻¹	
C=CC(=O)NCCCC[C@H](NC(=O)OCc1ccccc1)C(=O)N1CCN(S(=O)(=O)c2cccs2)CC1	40.1 µM	36.8 ×10³ /M/min	1.48 min⁻¹	
C=CC(=O)NCCCC[C@H](NC(=O)OCc1ccccc1)C(=O)NCC(=O)OC (Cbz-Lys(Acryloyl)-Gly-OMe)	40 µM	36.2 ×10³ /M/min	1.45 min⁻¹	
C=CC(=O)NCCCC[C@H](NC(=O)OCc1ccccc1)C(=O)NCC(=O)O (Cbz-Lys(Acryloyl)-Gly-OH)	48.1 µM	26.1 ×10³ /M/min	1.26 min⁻¹	Ki [5]: 0.15 µM; Ratio (Cavia porcellus): 3 ×10⁶ /M/min
C=CC(=O)NCCCC[C@H](NC(=O)OCc1ccccc1)C(=O)N1CCN(S(=O)(=O)c2cccc3ccccc23)CC1	10.4 µM	37.2 ×10³ /M/min	0.39 min⁻¹	
C=CC(=O)NCCCC[C@H](NC(=O)OCc1ccccc1)C(=O)NCCNS(=O)(=O)c1cccc2c(N(C)C)cccc12				Ratio [6]: 61.5 ×10³ /M/min; Ki [7]: 23.5 µM; Kinact [8]: 1.45 min⁻¹
C=CC(=O)NCCCC[C@H](NC(=O)OCc1ccccc1)C(=O)O	60.3 µM			Ki [5]: 0.52 µM
C=CC(=O)NCCCC[C@H](NC(=O)OCc1ccccc1)C(=O)N1CCN(C(C)=O)CC1	52.1 µM	36.9 ×10³ /M/min	2.06 min⁻¹	
C=CC(=O)NCCCC[C@H](NC(=O)OCc1ccccc1)C(=O)N1CCN(C(=O)c2cc3ccc(O)cc3oc2=O)CC1	11.2 µM	62.1 ×10³ /M/min	0.69 min⁻¹	
C=CC(=O)NCCCC[C@H](NC(=O)OCc1ccccc1)C(=O)N1CCN(c2ccccc2Cl)CC1	17.4 µM	56 ×10³ /M/min	0.97 min⁻¹	
C=CC(=O)NCCCC[C@H](NC(=O)OCc1ccccc1)C(=O)N1CCN(C(=O)Cc2ccccc2)CC1	20 µM	113 ×10³ /M/min	2.26 min⁻¹	
C=CC(=O)NCCCC[C@H](NC(=O)OCc1ccccc1)C(=O)NCCCNS(=O)(=O)c1cccc2c(N(C)C)cccc12				Ratio [6]: 27.6 ×10³ /M/min; Ki [7]: 30.5 µM; Kinact [8]: 0.85 min⁻¹
C=CC(=O)NCCCC[C@H](NC(=O)OCc1ccccc1)C(=O)N1CCOCC1	28.9 µM	51 ×10³ /M/min	1.47 min⁻¹	
C=CC(=O)NCCCC[C@H](NC(=O)OCc1ccccc1)C(=O)N1CCN(C(=O)c2ccncc2)CC1	38.7 µM	37 ×10³ /M/min	1.43 min⁻¹	
C=CC(=O)NCCCC[C@H](NC(=O)OCc1ccccc1)C(=O)N1CCN(S(=O)(=O)c2ccc3ccccc3c2)CC1	6.7 µM	57.3 ×10³ /M/min	0.38 min⁻¹	
C=CC(=O)NCCCC[C@H](NC(=O)OCc1ccccc1)C(=O)N1CCN(S(=O)(=O)C2CCCCC2)CC1	11 µM	62.9 ×10³ /M/min	0.69 min⁻¹	
C=CC(=O)NCCCC[C@H](NC(=O)OCc1ccccc1)C(=O)N1CCN(S(C)(=O)=O)CC1	6.4 µM	78.4 ×10³ /M/min	0.5 min⁻¹	
C=CC(=O)NCCCC[C@H](NC(=O)OCc1ccccc1)C(=O)N1CCN(S(=O)(=O)Cc2ccccc2)CC1	14.7 µM	34.9 ×10³ /M/min	0.47 min⁻¹	
C=CC(=O)NCCCC[C@H](NC(=O)OCc1ccccc1)C(N)=O				Ratio [6]: 30.7 ×10³ /M/min; Ki [7]: 35.1 µM; Kinact [8]: 1.08 min⁻¹
C=CC(=O)NCCCC[C@H](NC(=O)OCc1ccccc1)C(=O)N1CCN(C(=O)c2cccnc2)CC1	23.4 µM	61.4 ×10³ /M/min	1.44 min⁻¹	
C=CC(=O)NCCCC[C@H](NC(=O)OCc1ccccc1)C(=O)N1CCN(S(=O)(=O)c2ccccc2)CC1	8.8 µM	53.3 ×10³ /M/min	0.47 min⁻¹	
C=CC(=O)NCCCC[C@H](NC(=O)OCc1ccccc1)C(=O)NCCCCNS(=O)(=O)c1cccc2c(N(C)C)cccc12				Ratio [6]: 80.8 ×10³ /M/min; Ki [7]: 27.1 µM; Kinact [8]: 2.19 min⁻¹
C=CC(=O)NCCC[C@H](NC(=O)OCc1ccccc1)C(=O)N1CCN(S(=O)(=O)c2cccc3c(N(C)C)cccc23)CC1				Ratio [6]: 24.7 ×10³ /M/min; Ki [7]: 47.7 µM; Kinact [8]: 1.18 min⁻¹
